Here are results for 14 compounds from US8680339B2, “Herbicides” (Syngenta Limited, priority 2009, dated 2014).

Holding throughout (assay type): in vivo
The test system of assay [1] is Echinochloa crus-galli (ECHCG). In words: Pre-emergence herbicidal activity, glasshouse pot test. Particulars: rate 250 g/ha, evaluated after 13 days, 100=total damage to plant, 0=no damage to plant; for pest or weed control at 250 g/ha: Echinochloa crus-galli, 312 h. The procedure:
(§1) Seeds of a variety of test species were sown in standard soil in pots. After cultivation for one day (pre-emergence) or after 8 days cultivation (post-emergence) under controlled conditions in a glasshouse (at 24/16° C., day/night; 14 hours light; 65% humidity), the plants were sprayed with an aqueous spray solution derived from the formulation of the technical active ingredient in acetone/water (50:50) solution containing 0.5% Tween 20 (polyoxyethelyene sorbitan monolaurate, CAS RN 9005-64-5). The test plants were then grown in a glasshouse under controlled conditions in a glasshouse (at 24/16° C., day/night; 14 hours light; 65% humidity) and watered twice daily. After 13 days for pre and post-emergence, the test was evaluated (100=total damage to plant; 0=no damage to plant). Test Plants: Lolium perenne (LOLPE), Alopecurus myosuroides (ALOMY), Echinochloa crus-galli (ECHCG), and Avena fatua (AVEFA). Pre-Emergence Activity

Assay [2] relates to Alopecurus myosuroides (ALOMY). Described as above. As to conditions: rate 250 g/ha, evaluated after 13 days, 100=total damage to plant, 0=no damage to plant; for pest or weed control at 250 g/ha: Alopecurus myosuroides, 312 h. The protocol:
as §1

Assay [3] concerns Lolium perenne (LOLPE). Described as above. Particulars: rate 250 g/ha, evaluated after 13 days, 100=total damage to plant, 0=no damage to plant; for pest or weed control at 250 g/ha: Lolium perenne, 312 h. The procedure: as §1
In assay [4] the test system is Avena fatua (AVEFA). The assay is described as above. As to conditions: rate 250 g/ha, evaluated after 13 days, 100=total damage to plant, 0=no damage to plant; for pest or weed control at 250 g/ha: Avena fatua, 312 h. The procedure: as §1
Assay [5] has as its system Echinochloa crus-galli (ECHCG). As to the kind of experiment: Post-emergence herbicidal activity, glasshouse pot test. Particulars: rate 250 g/ha, evaluated after 13 days, 100=total damage to plant, 0=no damage to plant; for pest or weed control at 250 g/ha: Echinochloa crus-galli, 312 h. The procedure:
as §1, with “Post-Emergence” for “Pre-Emergence”

Assay [6] has as its system Alopecurus myosuroides (ALOMY). Described as above. As to conditions: rate 250 g/ha, evaluated after 13 days, 100=total damage to plant, 0=no damage to plant; for pest or weed control at 250 g/ha: Alopecurus myosuroides, 312 h. The procedure: as §1, with “Post-Emergence” for “Pre-Emergence”
In assay [7] the test system is Lolium perenne (LOLPE). The description is as above. Particulars: rate 250 g/ha, evaluated after 13 days, 100=total damage to plant, 0=no damage to plant; for pest or weed control at 250 g/ha: Lolium perenne, 312 h. The protocol: as §1, with “Post-Emergence” for “Pre-Emergence”
The test system of assay [8] is Avena fatua (AVEFA). The description is as above. Particulars: rate 250 g/ha, evaluated after 13 days, 100=total damage to plant, 0=no damage to plant; for pest or weed control at 250 g/ha: Avena fatua, 312 h. The protocol: as §1, with “Post-Emergence” for “Pre-Emergence”

One may read the pest or weed control as how far the test organism was held down. Take `Cc1cc(Oc2cnc3cc(Cl)ccc3n2)cc(C)c1C1=C(O)[C@H]2[C@H]3CC[C@H](C3)[C@H]2C1=O` [Compound A-16]: the pest or weed control at 250 g/ha in assay [1] turned out to be 10%; in assay [2], 0%; in assay [3] it was 0%; in assay [4], 0%; in assay [5], 60%; in assay [6], 30%. The pest or weed control at 250 g/ha in assay [7] and in assay [8] was 0% each time.
Turning to `Cc1cc(Oc2ccc(C(F)(F)F)cn2)cc(C)c1C1=C(O)[C@H]2[C@H]3CC[C@H](C3)[C@H]2C1=O` [Compound A-17, meso-(3aS,4S,7R,7aR)-2-[2,6-dimethyl-4-(5-trifluoromethylpyridin-2-yloxy)phenyl]-hexahydro-4,7-methanoindene-1,3-dione], the pest or weed control at 250 g/ha in assay [1] is 30%; in assay [2], 0%; in assay [3], 0%; in assay [4], 0%; in assay [5], 40%; in assay [6], 10%. Besides, the pest or weed control at 250 g/ha in assay [7] and in assay [8] was 10% in each case.
For the compound `Cc1cc(Oc2ncc(Cl)cc2F)cc(C)c1C1=C(O)[C@H]2[C@H]3CC[C@H](C3)[C@H]2C1=O` [Compound A-18], the pest or weed control at 250 g/ha in assay [1] was 40%; in assay [2], 10%; in assay [3], 0%; in assay [4], 0%; in assay [5], 70%; in assay [6] it was 30%. In addition, the pest or weed control at 250 g/ha in assay [7] was 10%; in assay [8], 30%.
Take `Cc1cc(Oc2ccc(C(F)(F)F)cn2)cc(C)c1C1=C(O)C2C(C1=O)[C@H]1CC[C@@H]2CC1` (stereo partly shown) [Compound A-19]: the pest or weed control at 250 g/ha in assay [1] stood at 10%; in assay [2] it was 0%; in assay [3], 0%; in assay [4] it was 0%; in assay [5] it was 60%; in assay [6], 10%. Moreover, the values for the pest or weed control at 250 g/ha in assay [7] and in assay [8] were 0% and 10%, respectively.
For the compound `Cc1cc(Oc2ncc(Cl)cc2F)cc(C)c1C1=C(O)C2C(C1=O)[C@H]1CC[C@@H]2CC1` (stereo partly shown) [Compound A-20, 2-[4-(5-chloro-3-fluoropyridin-2-yloxy)-2,6-dimethylphenyl]hexahydro-4,7-ethanoindene-1,3-dione], the pest or weed control at 250 g/ha in assay [1] amounted to 60%; in assay [2], 40%; in assay [3], 20%; in assay [4], 0%; in assay [5] it was 70%; in assay [6] it was 50%. The pest or weed control at 250 g/ha in assay [7] stood at 30%; in assay [8] it was 20%.
On to `Cc1cc(Oc2cnc3cc(Cl)ccc3n2)cc(C)c1C1=C(O)C2C(C1=O)[C@H]1CC[C@@H]2CC1` (stereo partly shown) [Compound A-21], for which the pest or weed control at 250 g/ha in assay [1] came out at 50%; in assay [2] it was 10%; in assay [3], 30%; in assay [4], 0%; in assay [5], 70%; in assay [6] it was 10%. Also, the pest or weed control at 250 g/ha in assay [7] and in assay [8] was 0% in each case.
As to `Cc1cc(Oc2cnc3cc(Cl)ccc3n2)cc(C)c1C1=C(O)[C@H]2[C@@H](C1=O)[C@@H]1CC[C@H]2O1` [Compound A-22], the pest or weed control at 250 g/ha in assay [1] was 90%; in assay [2], 50%; in assay [3] it was 80%; in assay [5], 90%; in assay [8], 100%. Further, the “damage to plant AVEFA” value in assay [4] is 50. Besides, the “damage to plant ALOMY” value in assay [6] is 100. In assay [7], the “damage to plant LOLPE” value came out at 100.
For `Cc1cc(Oc2cnc3cc(Cl)ccc3n2)cc(C)c1C1=C(O)[C@H]2[C@@H](C1=O)[C@@H]1CC[C@H]2O1` [Compound A-23], the figures for the “damage to plant ECHCG” value in assay [1] and in assay [5] were 90 and 70, respectively. In addition, the “damage to plant ALOMY” value in assay [2] stood at 30; in assay [6] it was 60. For the same compound, the entries for the “damage to plant LOLPE” value in assay [3] and in assay [7] were 90 and 50, respectively. The figures for the “damage to plant AVEFA” value in assay [4] and in assay [8] were 20 and 80, respectively.
As to `Cc1cc(Oc2ncc(Cl)cc2F)cc(C)c1C1=C(O)[C@H]2[C@@H](C1=O)[C@@H]1CC[C@H]2O1` [Compound A-24], the pest or weed control at 250 g/ha is 70% in assay [1]; 80% in assay [3]; 90% in assay [5]; 80% in assay [6]; 90% in assay [7]; 80% in assay [8]. In addition, the “damage to plant ALOMY” value in assay [2] is reported as 100. Also, the “damage to plant AVEFA” value in assay [4] is reported as 60.
Regarding `Cc1cc(Oc2ncc(Cl)cc2F)cc(C)c1C1=C(O)[C@H]2[C@@H](C1=O)[C@@H]1CC[C@H]2O1` [Compound A-25], the “damage to plant ECHCG” value in assay [1] and in assay [5] was 70 each time. In addition, the “damage to plant ALOMY” value in assay [2] is on record as 40; in assay [6], 90. Besides, the “damage to plant LOLPE” value in assay [3] and in assay [7] was 80 each time. For the same compound, the “damage to plant AVEFA” value is 30 in assay [4] and 70 in assay [8].
For `Cc1cc(Oc2ncc(Cl)cc2Cl)cc(C)c1C1=C(O)[C@H]2[C@@H](C1=O)[C@@H]1CC[C@H]2O1` [Compound A-26], the pest or weed control at 250 g/ha in assay [1] is 100%; in assay [2], 90%; in assay [3], 100%; in assay [4] it was 60%; in assay [5], 90%; in assay [6] it was 100%. Moreover, the values for the pest or weed control at 250 g/ha in assay [7] and in assay [8] were 100% and 70%, respectively.
Turning to `CCc1cc(Oc2ccc(Cl)cc2)ccc1C1=C(O)CCC1=O` [Compound A-32, 2-[4-(4-chlorophenoxy)-2-ethylphenyl]cyclopentane-1,3-dione], the pest or weed control at 250 g/ha in assay [1] amounted to 50%; in assay [2], 0%; in assay [3], 10%; in assay [4] it was 0%; in assay [5], 0%; in assay [6], 0%. In addition, the pest or weed control at 250 g/ha in assay [7] and in assay [8] was 0% throughout.
As to `Cc1cc(Oc2ccc(Cl)cc2)cc(C)c1C1=C(O)CC(CC2CCOCC2)C1=O` (stereo not shown) [Compound A-34], the pest or weed control at 250 g/ha in assay [1] is 70%; in assay [2], 80%; in assay [3], 70%; in assay [4], 30%; in assay [5], 80%; in assay [6], 80%. The pest or weed control at 250 g/ha amounted to 70% in assay [7] and 60% in assay [8].
In the case of `CCc1cc(Oc2ccc3cc(Cl)ccc3n2)ccc1C1=C(O)CCC1=O` [Compound A-35], the pest or weed control at 250 g/ha was 70% in assay [1]; 0% in assay [2]; 0% in assay [3]; 0% in assay [4]; 80% in assay [5]; 0% in assay [6]. In addition, the pest or weed control at 250 g/ha in assay [7] was 20%; in assay [8] it was 0%.
